Source: patent US20250375417A1, “OREXIN RECEPTOR 2 (OX2R) AGONIST FOR USE IN NARCOLEPSY TYPE 1 (NT1)” (TAKEDA PHARMACEUTICAL COMPANY LIMITED, priority 2024, published 2025)
Where “and” joins values, the source holds several entries; their conditions need not be identical. Equal entries are not always repeated.

Key:
participants with NT1 = assay: Maintenance of Wakefulness Test (MWT) sleep onset latency, Phase 2 NT1 trial (Example 1); format: in vivo, human
Procedure: In some aspects of the methods described herein, the subject experiences a higher mean sleep latency (also referred to as sleep onset latency or SOL) from the Maintenance of Wakefulness Test (MWT) after a treatment period compared to an untreated subject. The MWT is a validated, objective measure that evaluates a person's ability to remain awake under soporific conditions for a defined period of time. Because there is no biological measure of wakefulness, wakefulness is measured indirectly by the inability or delayed tendency to fall asleep. This tendency to fall asleep is measured via electroencephalography-derived sleep latency in the MWT. One MWT, that includes four 40-minute wake trials, is done on each day specified in the Schedule of Activities of the trial. Sleep latency in each wake trial is recorded. Participants are required to stay awake in between the 4 MWT wake trials.
During each MWT wake trial, participants are instructed to sit in a bed or reclining chair and remain awake for as long as possible in a dimly lit room. Wake trials are ended after 40 minutes if no sleep occurs. If no sleep has been observed according to these rules, then the latency is defined as 40 minutes.
Randomization was stratified by region. Starting on the morning of Day 1, the study drug was administered at approximately the same time each day for 8 or 12 weeks. If the participant wished to enroll in the long-term extension (LTE) study described in Example 3 but the LTE study had not started at the participant's site when the participant completed the Week 8 visit of the current study, the participant was allowed to continue in the current study for an additional 4 weeks.
The following doses were studied: • Compound A Dose Regimen 1:0.5 mg twice daily approximately 3 hours apart. • Compound A Dose Regimen 2:2 mg twice daily approximately 3 hours apart. • Compound A Dose Regimen 3:2 mg followed by 5 mg approximately 3 hours apart. • Compound A Dose Regimen 4:7 mg once daily (QD). • Other products required for the study: Matching placebo.
Dose regimens included once daily (QD) or twice daily (approximately 3 hours apart) dosing. Study treatment was administered at approximately 8 AM and 11 AM. (Participants assigned to a QD dose regimen received placebo for the second dose. Participants assigned to placebo received placebo for both doses).
Endpoints included change from baseline to Week 8 in mean sleep onset latency on the Maintenance of Wakefulness Test (SOL-MWT; primary endpoint), ESS total score, weekly cataplexy rate (WCR), and occurrence of treatment-emergent adverse events (TEAEs).

patients with NT1 = assay: Ambulatory blood pressure monitoring (ABPM), nocturnal BP dip, Phase 2 NT1 trial; format: in vivo, human; settings: for DBP 24-h average, LS mean change at Week 6 from baseline / DBP 24-h pattern dip, LS mean change at Week 6 from baseline / DBP 24-h pattern highest, LS mean change at Week 6 from baseline / DBP 24-h pattern lowest, LS mean change at Week 6 from baseline / SBP 24-h average, LS mean change at Week 6 from baseline / SBP 24-h pattern dip, LS mean change at Week 6 from baseline / SBP 24-h pattern highest, LS mean change at Week 6 from baseline / SBP 24-h pattern lowest, LS mean change at Week 6 from baseline: baseline DBP non-dippers
From the text: Blunted nocturnal blood pressure (BP) dip, a potential risk factor for cardiovascular disease, may affect approximately ⅓ of patients with NT1. In the studies described herein, ambulatory blood pressure monitoring (ABPM) recordings can be obtained over an approximately 24.5-hour period and participants should not be confined to the clinical site during most of the 24.5-hour recording period. The ABPM device should be applied on-site. Because it is a requirement that the ABPM devices begin recording in the morning before the first morning dose (or similar time if performed during screening period), site staff may opt to confine participants in the evening before fitting participants with the ABPM monitoring device. If the participant is travelling to the site for the ABPM fitting, they may delay their first morning dose of study medication (to be taken no later than 10 AM) if needed. Participants who are confined the evening prior should also take their study drug right after the ABPM recording starts. For the ABPM during the screening period, the recording should begin between 8:00 AM±2 hours. Sites should ensure that all recordings meet the minimum threshold of acceptability. […] Participants will be trained on the use of the device with NT1.
Using functional data analysis, systolic BP (SBP) and diastolic BP (DBP) can be estimated in 24-hour patterns and key parameters, such as average, waveform amplitude, lowest and highest points, and dip amplitude (defined as [average−lowest]/average) can be extracted for each subject-visit. Non-dippers are defined as DBP 24-hour dip<13.44, as projected from a DBP fixed-window daytime to nighttime dip of <10%.
Blunted nocturnal blood pressure (BP) dip, a potential risk factor for cardiovascular disease, may affect approximately ⅓ of patients with narcolepsy type 1 (NT1). Ambulatory BP monitor (ABPM) data from 112 study patients with NT1 was measured. Using functional data analysis, systolic BP (SBP) and diastolic BP (DBP) were estimated in 24-hour patterns and key parameters were extracted, such as average, waveform amplitude, lowest and highest values, and dip amplitude (defined as [average-lowest]/average) at baseline and Week 6. […] Non-dippers were defined as having DBP 24-hour dip below a threshold corresponding to DBP daytime (6 am-10 pm) to nighttime ([…]) drop of <10%. Longitudinal changes in BP parameters were quantified across five randomized treatment arms (placebo, Compound A 0.5 mg twice 3 hours apart, 2 mg twice 3 hours apart, 2 mg then 5 mg 3 hours later, and 7 mg once-daily) at Week 6 post-baseline. Associations between BP and sleep parameters were assessed longitudinally by matching ABPM data from baseline and Week 6 with nocturnal polysomnography data from baseline and Week 8, respectively.

## CCS(=O)(=O)N[C@@H]1[C@H](Cc2cccc(-c3cc(F)cc(F)c3)c2F)N(C(=O)C(C)(C)O)CC1(F)F [Compound A, N-{(2S,3R)-4,4-difluoro-1-(2-hydroxy-2-methylpropanoyl)-2-[(2,3′,5′-trifluoro[1,1′-biphenyl]-3-yl)methyl]pyrrolidin-3-yl}ethanesulfonamide]
Participants with NT1; 0.5 mg/0.5 mg
  LS mean (SE) change from baseline to Week 8 in SOL-MWT: 12.49 (2.13) minutes
Participants with NT1; 2 mg/2 mg
  LS mean (SE) change from baseline to Week 8 in SOL-MWT: 23.50 (2.04) minutes
Participants with NT1; 2 mg/5 mg
  LS mean (SE) change from baseline to Week 8 in SOL-MWT: 25.42 (2.07) minutes
Participants with NT1; 7 mg
  LS mean (SE) change from baseline to Week 8 in SOL-MWT: 14.96 (1.95) minutes
Patients with NT1; baseline DBP dippers (n=73), either treatment arm
  SBP or DBP dip, change from baseline at Week 6: no significant changes
Patients with NT1; 0.5 mg/0.5 mg
  DBP 24-h average, LS mean change at Week 6 from baseline: 0.17
  DBP 24-h pattern dip, LS mean change at Week 6 from baseline: 2.7% and 2.67%
  DBP 24-h pattern highest, LS mean change at Week 6 from baseline: 0.75
  DBP 24-h pattern lowest, LS mean change at Week 6 from baseline: −1.73
  SBP 24-h average, LS mean change at Week 6 from baseline: −1.42
  SBP 24-h pattern dip, LS mean change at Week 6 from baseline: 1.20%
  SBP 24-h pattern highest, LS mean change at Week 6 from baseline: −0.87
  SBP 24-h pattern lowest, LS mean change at Week 6 from baseline: −2.48
Patients with NT1; 2 mg/2 mg
  DBP 24-h average, LS mean change at Week 6 from baseline: −0.08
  DBP 24-h pattern dip, LS mean change at Week 6 from baseline: 7.9% and 7.91%
  DBP 24-h pattern highest, LS mean change at Week 6 from baseline: 1.62
  DBP 24-h pattern lowest, LS mean change at Week 6 from baseline: −5.93
  SBP 24-h average, LS mean change at Week 6 from baseline: 0.05
  SBP 24-h pattern dip, LS mean change at Week 6 from baseline: 5.36%
  SBP 24-h pattern highest, LS mean change at Week 6 from baseline: 1.45
  SBP 24-h pattern lowest, LS mean change at Week 6 from baseline: −6.55
Patients with NT1; 2 mg/5 mg
  DBP 24-h average, LS mean change at Week 6 from baseline: −3.40
  DBP 24-h pattern dip, LS mean change at Week 6 from baseline: 8.1% and 8.11%
  DBP 24-h pattern highest, LS mean change at Week 6 from baseline: −1.18
  DBP 24-h pattern lowest, LS mean change at Week 6 from baseline: −8.71
  SBP 24-h average, LS mean change at Week 6 from baseline: −4.13
  SBP 24-h pattern dip, LS mean change at Week 6 from baseline: 4.11%
  SBP 24-h pattern highest, LS mean change at Week 6 from baseline: −1.86
  SBP 24-h pattern lowest, LS mean change at Week 6 from baseline: −8.80
Patients with NT1; 7 mg QD
  DBP 24-h average, LS mean change at Week 6 from baseline: −0.75
  DBP 24-h pattern dip, LS mean change at Week 6 from baseline: 6.6% and 6.61%
  DBP 24-h pattern highest, LS mean change at Week 6 from baseline: 1.26
  DBP 24-h pattern lowest, LS mean change at Week 6 from baseline: −5.13
  SBP 24-h average, LS mean change at Week 6 from baseline: 1.32
  SBP 24-h pattern dip, LS mean change at Week 6 from baseline: 3.28%
  SBP 24-h pattern highest, LS mean change at Week 6 from baseline: 3.31
  SBP 24-h pattern lowest, LS mean change at Week 6 from baseline: −2.44
Patients with NT1; whole population (n=111), any Compound A dose
  DBP 24-hour pattern dip, change from baseline at Week 6: no significant changes
